Test results reported in US10844077B2, “Thiazolyl-containing compounds for treating proliferative diseases” (Dana-Farber Cancer Institute, Inc., priority 2014, dated 2020).
Values joined by “and” are separate entries in the source; they are usually repeats but may differ in a detail not shown here. Identical values can stand only once. Like-named read-outs stand apart in the source and are kept apart here.

Tests used:
Assay type in all cases: cell-based
[1] = target: kinases in BCWM.1 cells (Homo sapiens, UniProt Q99755); conditions: PIP5K1A; ATP; 1 μM, 90 min; GF
Procedure: (§1) The cells were harvested and lysed. […] Bound kinases were identified and quantitated by ACTIVX as described in Patricelli et al., Biochemistry, 2007, 46(2): 350-358. The compounds were tested in duplicates against duplicate or quadruplicate control samples.

[2] = target: kinases in BCWM.1 cells (Homo sapiens, UniProt O14976); conditions: GAK; Lys2; 1 μM; GF
Procedure: as §1

[3] = target: kinases in BCWM.1 cells (Homo sapiens, UniProt P09769); conditions: FGR; Activation Loop; 1 μM; GF
Procedure: as §1

[4] = target: kinases in BCWM.1 cells (Homo sapiens, UniProt Q13163); conditions: MAP2K5; Lys2; 1 μM; GF
Procedure: as §1

[5] = target: kinases in BCWM.1 cells (Homo sapiens, UniProt P51617); conditions: IRAK1; Lys2; 1 μM; GF
Procedure: as §1

[6] = target: kinases in BCWM.1 cells (Homo sapiens, UniProt P07332); conditions: FES; Lys1; 1 μM; GF
Procedure: as §1

[7] = target: kinases in BCWM.1 cells (Homo sapiens, UniProt P41240); conditions: CSK; Activation Loop; 1 μM; GF
Procedure: as §1

[8] = target: kinases in BCWM.1 cells (Homo sapiens, UniProt P41743); conditions: PKCi; Lys1; 1 μM, 90 min; GF
Procedure: as §1

[9] = target: kinases in BCWM.1 cells (Homo sapiens, UniProt O00418); conditions: eEF2K; ATP; 1 μM; GF
Procedure: as §1

[10] = target: kinases in BCWM.1 cells (Homo sapiens, UniProt Q99759); conditions: MAP3K3; Lys1; 1 μM; GF
Procedure: as §1

[11] = target: kinases in BCWM.1 cells (Homo sapiens, UniProt Q8TCG2); conditions: PI4K2B; ATP; 1 μM, 90 min; GF
Procedure: as §1

[12] = target: kinases in BCWM.1 cells (Homo sapiens, UniProt P29323); conditions: EphB2; Activation Loop; 1 μM; GF
Procedure: as §1

[13] = target: kinases in BCWM.1 cells (Homo sapiens, UniProt Q00536)
Procedure: as §1

[14] = target: kinases in BCWM.1 cells (Homo sapiens, UniProt P80192); conditions: MLK1; Lys2; 1 μM; GF
Procedure: as §1

[15] = target: kinases in BCWM.1 cells (Homo sapiens, UniProt Q9C0K7); conditions: STLK6; Lys1; 1 μM, 90 min; GF
Procedure: as §1

[16] = target: kinases in BCWM.1 cells (Homo sapiens, UniProt Q5TCX8); conditions: MLK4; Lys2; 1 μM; GF
Procedure: as §1

[17] = target: kinases in BCWM.1 cells (Homo sapiens, UniProt P78368); conditions: CK1g2; Lys2; 1 μM; GF
Procedure: as §1

[18] = target: kinases in BCWM.1 cells (Homo sapiens, UniProt O95382); conditions: MAP3K6; Lys2; 1 μM; GF
Procedure: as §1

[19] = target: kinases in BCWM.1 cells (Homo sapiens, UniProt Q86UX6); conditions: YANK3; Lys2; 1 μM, 90 min; GF
Procedure: as §1

[20] = target: kinases in BCWM.1 cells (Homo sapiens, UniProt O94804); conditions: LOK; Lys2; 1 μM; GF
Procedure: as §1

[21] = target: kinases in BCWM.1 cells (Homo sapiens, UniProt Q9UK32); conditions: RSK4 domain1; Lys2; 1 μM, 90 min; GF
Procedure: as §1

[22] = target: kinases in BCWM.1 cells (Homo sapiens, UniProt P23458); conditions: 1 μM, GF
Procedure: as §1

[23] = target: kinases in BCWM.1 cells (Homo sapiens, UniProt P06493); conditions: CDC2; Protein Kinase Domain; 1 μM; GF
Procedure: as §1

[24] = target: kinases in BCWM.1 cells (Homo sapiens, UniProt P24941); conditions: CDK2; Lys2; 1 μM; GF
Procedure: as §1

[25] = target: kinases in BCWM.1 cells (Homo sapiens, UniProt Q16584); conditions: MLK3; Lys2; 1 μM; GF
Procedure: as §1

[26] = target: kinases in BCWM.1 cells (Homo sapiens, UniProt P50750); conditions: CDK9; Lys2; 1 μM; GF
Procedure: as §1

[27] = target: kinases in BCWM.1 cells (Homo sapiens, UniProt Q9Y6R4); conditions: MAP3K4; Lys2; 1 μM; GF
Procedure: as §1

[28] = target: kinases in BCWM.1 cells (Homo sapiens, UniProt Q14004)
Procedure: as §1

[29] = target: kinases in BCWM.1 cells (Homo sapiens, UniProt O75676); conditions: MSK2 domain1; Lys2; 1 μM; GF
Procedure: as §1

[30] = target: kinases in BCWM.1 cells (Homo sapiens, UniProt Q13557); conditions: CaMK2d; Lys1; 1 μM; GF
Procedure: as §1

Chain of kinases in BCWM.1 cells (Homo sapiens, UniProt P09769) (P09769 2-529 limits assumed): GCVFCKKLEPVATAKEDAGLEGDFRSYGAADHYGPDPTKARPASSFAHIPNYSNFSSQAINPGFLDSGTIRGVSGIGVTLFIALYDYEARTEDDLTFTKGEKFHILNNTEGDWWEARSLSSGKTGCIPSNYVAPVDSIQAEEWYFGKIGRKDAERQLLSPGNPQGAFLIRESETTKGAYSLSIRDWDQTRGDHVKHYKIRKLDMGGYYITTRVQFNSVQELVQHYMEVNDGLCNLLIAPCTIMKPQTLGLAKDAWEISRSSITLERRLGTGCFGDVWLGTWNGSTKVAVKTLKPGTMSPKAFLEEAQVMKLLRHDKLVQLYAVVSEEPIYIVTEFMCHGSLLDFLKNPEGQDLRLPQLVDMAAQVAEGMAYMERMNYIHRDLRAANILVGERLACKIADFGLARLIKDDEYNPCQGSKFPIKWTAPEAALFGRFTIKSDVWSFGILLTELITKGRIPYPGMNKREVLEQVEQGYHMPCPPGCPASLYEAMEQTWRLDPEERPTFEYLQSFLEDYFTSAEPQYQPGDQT
Chain of kinases in BCWM.1 cells (Homo sapiens, UniProt O00418) (O00418 2-725 limits assumed): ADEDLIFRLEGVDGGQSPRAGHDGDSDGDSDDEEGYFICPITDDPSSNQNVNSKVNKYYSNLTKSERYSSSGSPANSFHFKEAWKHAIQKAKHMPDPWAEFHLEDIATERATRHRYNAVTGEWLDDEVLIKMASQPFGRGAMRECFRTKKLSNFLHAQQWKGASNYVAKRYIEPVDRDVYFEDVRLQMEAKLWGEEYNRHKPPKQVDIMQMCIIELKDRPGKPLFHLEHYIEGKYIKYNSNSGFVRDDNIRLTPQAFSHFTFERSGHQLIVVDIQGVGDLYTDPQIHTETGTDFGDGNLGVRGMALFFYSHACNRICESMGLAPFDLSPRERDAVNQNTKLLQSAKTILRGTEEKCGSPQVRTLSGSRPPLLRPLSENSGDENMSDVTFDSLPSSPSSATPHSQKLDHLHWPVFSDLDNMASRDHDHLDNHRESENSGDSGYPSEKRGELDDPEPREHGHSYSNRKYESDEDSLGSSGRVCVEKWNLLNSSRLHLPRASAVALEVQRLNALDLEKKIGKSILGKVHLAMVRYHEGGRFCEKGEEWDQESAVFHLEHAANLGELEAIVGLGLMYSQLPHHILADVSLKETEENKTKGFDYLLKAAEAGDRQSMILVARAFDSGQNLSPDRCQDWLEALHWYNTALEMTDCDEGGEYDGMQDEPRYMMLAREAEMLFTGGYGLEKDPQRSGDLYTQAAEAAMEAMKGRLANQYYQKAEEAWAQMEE
Chain of kinases in BCWM.1 cells (Homo sapiens, UniProt P41240) (P41240 2-450 limits assumed): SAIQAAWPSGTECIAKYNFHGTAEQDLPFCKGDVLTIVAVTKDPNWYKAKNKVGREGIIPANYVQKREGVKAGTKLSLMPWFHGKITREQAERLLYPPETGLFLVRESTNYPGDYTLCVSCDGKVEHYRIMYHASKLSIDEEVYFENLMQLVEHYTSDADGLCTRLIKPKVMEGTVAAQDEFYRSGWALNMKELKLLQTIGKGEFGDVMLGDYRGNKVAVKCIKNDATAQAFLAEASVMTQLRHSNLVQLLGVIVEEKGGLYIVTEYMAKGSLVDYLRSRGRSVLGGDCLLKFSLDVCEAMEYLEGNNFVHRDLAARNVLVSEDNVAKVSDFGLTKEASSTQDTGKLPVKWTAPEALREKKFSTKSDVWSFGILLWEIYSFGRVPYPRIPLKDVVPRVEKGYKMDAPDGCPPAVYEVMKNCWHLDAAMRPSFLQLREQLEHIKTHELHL
Chain of kinases in BCWM.1 cells (Homo sapiens, UniProt P29323) (P29323 19-1055 limits assumed): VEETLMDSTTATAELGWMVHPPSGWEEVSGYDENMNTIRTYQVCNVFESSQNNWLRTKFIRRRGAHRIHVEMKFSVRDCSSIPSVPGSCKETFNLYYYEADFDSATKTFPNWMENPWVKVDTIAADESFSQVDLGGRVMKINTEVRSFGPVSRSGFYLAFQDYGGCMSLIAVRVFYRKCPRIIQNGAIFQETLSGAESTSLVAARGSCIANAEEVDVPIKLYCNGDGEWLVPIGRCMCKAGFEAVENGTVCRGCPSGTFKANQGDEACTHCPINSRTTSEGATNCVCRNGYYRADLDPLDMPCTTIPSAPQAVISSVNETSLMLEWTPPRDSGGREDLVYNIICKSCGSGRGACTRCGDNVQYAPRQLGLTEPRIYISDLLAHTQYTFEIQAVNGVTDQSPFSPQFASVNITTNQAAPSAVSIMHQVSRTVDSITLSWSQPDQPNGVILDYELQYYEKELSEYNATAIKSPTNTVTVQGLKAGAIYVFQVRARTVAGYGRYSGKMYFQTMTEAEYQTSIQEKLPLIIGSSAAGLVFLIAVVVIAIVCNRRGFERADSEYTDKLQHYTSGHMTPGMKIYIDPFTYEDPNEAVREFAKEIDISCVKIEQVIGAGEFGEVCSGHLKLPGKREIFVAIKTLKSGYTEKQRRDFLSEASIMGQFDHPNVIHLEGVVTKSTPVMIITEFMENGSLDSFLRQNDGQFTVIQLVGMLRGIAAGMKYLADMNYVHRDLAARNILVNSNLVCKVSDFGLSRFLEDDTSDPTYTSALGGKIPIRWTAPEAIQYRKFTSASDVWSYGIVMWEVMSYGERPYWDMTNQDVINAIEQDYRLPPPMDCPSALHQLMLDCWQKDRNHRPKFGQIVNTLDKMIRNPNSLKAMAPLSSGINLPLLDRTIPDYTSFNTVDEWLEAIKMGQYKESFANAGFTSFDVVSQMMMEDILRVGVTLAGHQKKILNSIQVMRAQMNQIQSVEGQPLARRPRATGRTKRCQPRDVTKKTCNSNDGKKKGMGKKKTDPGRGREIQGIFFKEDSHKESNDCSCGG
Chain of kinases in BCWM.1 cells (Homo sapiens, UniProt Q13557) (Q13557 2-499 limits assumed): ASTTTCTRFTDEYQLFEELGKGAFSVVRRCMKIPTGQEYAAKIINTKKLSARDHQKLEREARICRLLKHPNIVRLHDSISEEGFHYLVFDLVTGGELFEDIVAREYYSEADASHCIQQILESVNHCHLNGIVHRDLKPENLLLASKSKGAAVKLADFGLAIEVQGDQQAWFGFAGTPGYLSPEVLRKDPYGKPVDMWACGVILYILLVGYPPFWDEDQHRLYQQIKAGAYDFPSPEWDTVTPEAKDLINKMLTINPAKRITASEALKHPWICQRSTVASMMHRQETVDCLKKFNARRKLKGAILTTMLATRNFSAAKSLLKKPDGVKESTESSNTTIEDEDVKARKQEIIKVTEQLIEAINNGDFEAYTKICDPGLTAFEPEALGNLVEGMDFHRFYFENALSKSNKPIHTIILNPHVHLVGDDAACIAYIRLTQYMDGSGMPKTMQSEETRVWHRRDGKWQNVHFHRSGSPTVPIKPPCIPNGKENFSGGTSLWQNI
Chain of kinases in BCWM.1 cells (Homo sapiens, UniProt O14976) (O14976 2-1311 limits assumed): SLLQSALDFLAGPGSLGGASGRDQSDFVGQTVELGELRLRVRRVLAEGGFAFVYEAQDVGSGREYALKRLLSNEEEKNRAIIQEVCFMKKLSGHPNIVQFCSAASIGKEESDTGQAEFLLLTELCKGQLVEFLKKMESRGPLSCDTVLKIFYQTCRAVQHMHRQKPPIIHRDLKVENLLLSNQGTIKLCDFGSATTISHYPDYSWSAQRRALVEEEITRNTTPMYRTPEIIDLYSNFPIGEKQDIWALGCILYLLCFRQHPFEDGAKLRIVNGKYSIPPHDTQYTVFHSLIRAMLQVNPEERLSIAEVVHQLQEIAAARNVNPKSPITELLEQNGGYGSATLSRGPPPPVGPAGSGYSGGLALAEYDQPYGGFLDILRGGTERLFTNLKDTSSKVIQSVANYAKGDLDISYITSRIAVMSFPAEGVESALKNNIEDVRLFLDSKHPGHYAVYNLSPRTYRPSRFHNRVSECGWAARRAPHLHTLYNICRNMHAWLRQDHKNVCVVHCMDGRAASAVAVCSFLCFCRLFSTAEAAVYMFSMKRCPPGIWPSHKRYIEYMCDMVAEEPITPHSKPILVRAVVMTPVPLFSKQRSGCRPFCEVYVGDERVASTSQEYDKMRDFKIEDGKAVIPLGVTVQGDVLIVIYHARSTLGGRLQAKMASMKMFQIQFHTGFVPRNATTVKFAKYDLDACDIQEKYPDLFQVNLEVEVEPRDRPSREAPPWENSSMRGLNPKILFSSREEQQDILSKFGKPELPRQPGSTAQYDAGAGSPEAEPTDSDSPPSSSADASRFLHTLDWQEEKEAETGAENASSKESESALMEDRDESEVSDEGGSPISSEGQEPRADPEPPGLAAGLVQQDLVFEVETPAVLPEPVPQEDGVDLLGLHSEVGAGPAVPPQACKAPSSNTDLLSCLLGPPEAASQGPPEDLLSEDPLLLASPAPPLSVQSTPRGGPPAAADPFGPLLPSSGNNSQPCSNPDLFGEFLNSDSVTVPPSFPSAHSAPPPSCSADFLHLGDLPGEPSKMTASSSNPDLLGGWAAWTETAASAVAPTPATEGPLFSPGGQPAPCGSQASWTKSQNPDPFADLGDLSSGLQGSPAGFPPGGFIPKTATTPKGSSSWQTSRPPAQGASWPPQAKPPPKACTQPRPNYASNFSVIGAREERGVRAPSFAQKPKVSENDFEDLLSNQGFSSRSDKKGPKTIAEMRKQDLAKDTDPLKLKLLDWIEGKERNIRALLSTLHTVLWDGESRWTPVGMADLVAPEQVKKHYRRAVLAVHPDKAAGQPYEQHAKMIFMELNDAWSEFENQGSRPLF

For `C=CC(=O)N1CC[C@H](Nc2nccc(Nc3ncc(C(=O)Nc4c(C)cccc4C)s3)n2)C1` [Example I-3], the “% change of MS signal compared to control sample” value (from here on “% change of MS signal”) [1] was 30.5%.

With `CCC(=O)N1CC[C@H](Nc2nccc(Nc3ncc(C(=O)Nc4c(C)cccc4C)s3)n2)C1` [Example I-9] the “% change of MS signal” value [2] was 33.8%, the “% change of MS signal” value [3] was 84.7% and 72.1% and the “% change of MS signal” value [4] was 16.8% and 16.3%. The “% change of MS signal” value [5] was −2.6% and −3.2%, the “% change of MS signal” value [6] was −11.2% and −3.9% and the “% change of MS signal” value [7] was −6% and 1.5%. For the same compound, the “% change of MS signal” value [8] was 18.6%, the “% change of MS signal” value [9] was −51.4% and −48.7% and the “% change of MS signal” value [10] was −13.7% and −19.7%. The “% change of MS signal” value [11] was 6.5%, the “% change of MS signal” value [12] was 81.7% and 85.6% and the “% change of MS signal” value [13] was 6.5%. The “% change of MS signal” value [14] was 1% and 9%, the “% change of MS signal” value [15] was 4.8% and the “% change of MS signal” value [16] was −22% and −18.5%. For the same compound, the “% change of MS signal” value [17] was −8.9% and −10.9%, the “% change of MS signal” value [18] was −13.4% and −5% and the “% change of MS signal” value [19] was −13.2%. The “% change of MS signal” value [20] was 26.2% and 15.2%, the “% change of MS signal” value [21] was 15.8% and the “% change of MS signal” value ([22]; JAK1, Protein Kinase Domain) was −11.5% and −6.7%. The “% change of MS signal” value ([22]; JAK1 domain2, Activation Loop) was −15.6% and −13.9%, the “% change of MS signal” value ([22]; JAK1 domain2, Lys1) was −18.1% and −14.4% and the “% change of MS signal” value [23] was −2.6% and −3.2%. For the same compound, the “% change of MS signal” value [24] was −8.7% and −4.3%, the “% change of MS signal” value [25] was 24.1% and the “% change of MS signal” value [26] was 32.7% and 23.1%. The “% change of MS signal” value [27] was 3.2% and 10.9%, the “% change of MS signal” value [28] was 5.7% and 15.3% and the “% change of MS signal” value [29] was −27% and −18.7%. For the same compound, the “% change of MS signal” value [30] was −8.1% and −8.2%.
